Source: ChEMBL document CHEMBL5034015, “Structure-Based Optimization of 3-Phenyl-N-(2-(3-phenylureido)ethyl)thiophene-2-sulfonamide Derivatives as Selective Mcl-1 Inhibitors” (J Med Chem, 2021)
Activity calls are given as the source filed them.

Tests used:
HeLa = experiment: cells; details: Homo sapiens, 48 h
Description: Cytotoxicity against human HeLa cells assessed as inhibition of cell growth incubated for 48 hrs by CCK8 assay

HEK-293T = experiment: Cytotoxicity against HEK293T cells assessed as reduction in cell viability incubated for 48 hrs by CCK8 assay; details: Homo sapiens
Bcl-2-like protein 1 = Bcl-2-like protein 1 (Homo sapiens, UniProt Q07817); experiment: Binding affinity to full length human Bcl-xl expressed in Escherichia coli BL21 (DE3) at up to 100 uM preincubated for 30 mins followed by 5-FAM-QEDIIIINIARHLAQVGDSMD-RSIPPG tracer addition and measured after 20 mins by fluorescence polarization assay; details: dose microM <=100, time 50.0 min
HL-60 = experiment: cells; details: Homo sapiens, HL-60, 48 h
Description: Cytotoxicity against human HL-60 cells assessed as inhibition of cell growth incubated for 48 hrs by CCK8 assay

[1] = target: Apoptosis regulator Bcl-2 (Homo sapiens, UniProt P10415); experiment: Binding affinity to full length human Bcl-2 expressed in Escherichia coli BL21 (DE3) at up to 100 uM preincubated for 30 mins followed by 5-FAM-QEDIIIINIARHLAQVGDSMD-RSIPPG tracer addition and measured after 20 mins by fluorescence polarization assay; details: dose microM <=100, time 50.0 min
RS4-11 = experiment: cells; details: Homo sapiens, RS4-11, 48 h
Description: Cytotoxicity against human RS4-11 cells assessed as inhibition of cell growth incubated for 48 hrs by CCK8 assay

[2] = target: Induced myeloid leukemia cell differentiation protein Mcl-1 (Homo sapiens, UniProt Q07820); experiment: Binding affinity to full length human MCL1 expressed in Escherichia coli BL21 (DE3) at up to 100 uM preincubated for 30 mins followed by 5-FAM-QEDIIIINIARHLAQVGDSMD-RSIPPG tracer addition and measured after 20 mins by fluorescence polarization assay; details: dose microM <=100, time 50.0 min
Chain of Induced myeloid leukemia cell differentiation protein Mcl-1 (Q07820 whole entry): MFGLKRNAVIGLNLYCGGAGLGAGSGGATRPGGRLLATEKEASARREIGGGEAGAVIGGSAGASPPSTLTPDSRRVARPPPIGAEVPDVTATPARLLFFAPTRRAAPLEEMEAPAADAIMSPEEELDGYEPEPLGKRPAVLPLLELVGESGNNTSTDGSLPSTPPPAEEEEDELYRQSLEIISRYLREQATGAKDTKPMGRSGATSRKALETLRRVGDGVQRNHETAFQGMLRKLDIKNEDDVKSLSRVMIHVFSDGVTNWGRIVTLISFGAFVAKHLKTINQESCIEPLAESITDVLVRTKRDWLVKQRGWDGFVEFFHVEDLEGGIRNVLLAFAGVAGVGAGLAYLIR

Chain of Bcl-2-like protein 1 (Q07817 whole entry): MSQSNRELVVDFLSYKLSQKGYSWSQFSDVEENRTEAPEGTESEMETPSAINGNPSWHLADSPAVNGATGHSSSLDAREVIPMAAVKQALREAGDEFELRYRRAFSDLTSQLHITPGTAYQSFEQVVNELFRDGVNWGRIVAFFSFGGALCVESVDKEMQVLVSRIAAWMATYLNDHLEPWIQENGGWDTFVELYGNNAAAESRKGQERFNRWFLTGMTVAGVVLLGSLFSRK
Chain of Apoptosis regulator Bcl-2 (P10415 whole entry): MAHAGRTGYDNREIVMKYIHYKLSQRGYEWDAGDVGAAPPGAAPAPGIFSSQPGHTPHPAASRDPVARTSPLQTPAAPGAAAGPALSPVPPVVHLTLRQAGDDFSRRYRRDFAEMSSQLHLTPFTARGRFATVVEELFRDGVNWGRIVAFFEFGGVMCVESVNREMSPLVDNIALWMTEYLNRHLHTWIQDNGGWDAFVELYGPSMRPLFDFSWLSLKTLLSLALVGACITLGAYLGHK

SMILES | IC50 (HeLa) | IC50 (HEK-293T) | Activity (Bcl-2-like protein 1) | IC50 (HL-60) | Activity [1] | IC50 (RS4-11) | Activity [2]
COc1ccc(Oc2ccc(C(C)C)cc2-c2ccsc2S(=O)(=O)NCCNC(=O)Nc2cc(C(F)(F)F)cc(C(F)(F)F)c2)cc1OC | 11.6 µM | 12.1 µM | inactive | 7.4 µM | inactive | 11.7 µM | inactive
O=C(NCCNS(=O)(=O)c1ccc(-c2ccccc2O[C@H]2CC[C@@H](O)CC2)s1)Nc1cc(C(F)(F)F)cc(C(F)(F)F)c1 | 14.1 µM | 14.1 µM | inactive | 3.1 µM | inactive | 9.3 µM | inactive
COc1ccc(Oc2ccc(C(C)C)cc2-c2ccsc2S(=O)(=O)NCCNC(=S)Nc2ccc([N+](=O)[O-])cc2)cc1OC | 11.9 µM | 11.4 µM | inactive | 11.2 µM | inactive | 5.8 µM | inactive
COc1ccc(NC(=S)NCCNS(=O)(=O)c2sccc2-c2ccc(C)cc2Oc2ccc(O)c(O)c2)cc1 | > 20 µM | > 20 µM | inactive | 4.1 µM | inactive | 8.3 µM | inactive
O=C(NCCNS(=O)(=O)c1ccc(-c2ccccc2OCc2ccccc2)s1)Nc1cc(C(F)(F)F)cc(C(F)(F)F)c1 | 13.5 µM | > 20 µM | inactive | 11.4 µM | inactive | > 50 µM | inactive
O=S(=O)(NCCNC(=S)Nc1cccc(Cl)c1)c1ccc(-c2ccccc2OCc2ccccc2)s1 | 8.4 µM | 10.2 µM | inactive | > 50 µM | inactive | > 50 µM | inactive
COc1cccc(NC(=O)NCCNS(=O)(=O)c2sccc2-c2ccc(C)cc2Oc2ccc(O)c(O)c2)c1 | > 20 µM | > 20 µM | inactive | 3.6 µM | inactive | 7.5 µM | inactive
O=C(NCCNS(=O)(=O)c1ccc(-c2ccccc2O[C@H]2CC[C@H](O)CC2)s1)Nc1cc(Cl)cc(Cl)c1 | > 20 µM | > 50 µM | inactive | > 20 µM | inactive | 14.1 µM | inactive
COc1ccc(NC(=O)NCCNS(=O)(=O)c2ccc(-c3ccccc3OCc3cccc(O)c3)s2)cc1 | > 20 µM | > 20 µM | inactive | > 20 µM | inactive | 9.4 µM | inactive
Cc1cc(C)cc(NC(=O)NCCNS(=O)(=O)c2ccc(-c3ccccc3Oc3ccc([N+](=O)[O-])c([N+](=O)[O-])c3)s2)c1 | 12 µM | > 50 µM | inactive | 9.1 µM | inactive | 3.6 µM | inactive
O=C(NCCNS(=O)(=O)c1ccc(-c2ccccc2Oc2ccc([N+](=O)[O-])c([N+](=O)[O-])c2)s1)Nc1ccc([N+](=O)[O-])cc1 | > 20 µM | 16.6 µM | inactive | 0.34 µM | inactive | 3 µM | inactive
O=C(NCCNS(=O)(=O)c1ccc(-c2ccccc2Oc2ccc([N+](=O)[O-])c([N+](=O)[O-])c2)s1)Nc1cc(Cl)cc(Cl)c1 | > 20 µM | > 20 µM | inactive | 2.3 µM | inactive | 2.1 µM | inactive
O=C(NCCNS(=O)(=O)c1ccc(-c2ccccc2O[C@H]2CC[C@@H](O)CC2)s1)Nc1ccc([N+](=O)[O-])cc1 | > 20 µM | 8.6 µM | inactive | > 20 µM | inactive | 12.4 µM | inactive
O=S(=O)(NCCNC(=S)Nc1cc(C(F)(F)F)cc(C(F)(F)F)c1)c1ccc(-c2ccccc2OCc2cccc(O)c2)s1 | 14.9 µM | > 20 µM | inactive | > 50 µM | inactive | 12 µM | inactive
O=[N+]([O-])c1cccc(NC(=S)NCCNS(=O)(=O)c2ccc(-c3ccccc3OCc3cccc(O)c3)s2)c1 | 11.1 µM | 13.8 µM | inactive | 11.4 µM | inactive | 9.8 µM | inactive
O=C(NCCNS(=O)(=O)c1ccc(-c2ccccc2OCc2cccc(O)c2)s1)Nc1cc(Cl)cc(Cl)c1 | > 50 µM | > 20 µM | inactive | 2.8 µM | inactive | > 50 µM | inactive
O=S(=O)(NCCNC(=S)Nc1cc(C(F)(F)F)cc(C(F)(F)F)c1)c1ccc(-c2ccccc2O[C@H]2CC[C@@H](O)CC2)s1 | 10.9 µM | > 20 µM | inactive | 2.6 µM | inactive | 6.3 µM | inactive
O=[N+]([O-])c1ccc(Oc2ccccc2-c2ccc(S(=O)(=O)NCCNC(=S)Nc3cccc(Cl)c3)s2)cc1 | 4.6 µM | 4.99 µM | inactive | > 50 µM | inactive | > 50 µM | inactive
Cc1cc(C)cc(NC(=O)NCCNS(=O)(=O)c2ccc(-c3ccccc3OCc3ccccc3)s2)c1 | > 50 µM | > 20 µM | inactive | 2.2 µM | inactive | > 50 µM | inactive
COc1ccc(Oc2ccc(C(C)C)cc2-c2ccsc2S(=O)(=O)NCCNC(=O)Nc2cc(Cl)cc(Cl)c2)cc1OC | 11.6 µM | 11.9 µM | inactive | 6.5 µM | inactive | 9 µM | inactive
Cc1cc(C)cc(NC(=O)NCCNS(=O)(=O)c2ccc(-c3ccccc3OCc3cccc(O)c3)s2)c1 | > 20 µM | > 20 µM | inactive | > 20 µM | inactive | 5.8 µM | inactive
O=[N+]([O-])c1ccc(Oc2ccccc2-c2ccc(S(=O)(=O)NCCNC(=S)Nc3cc(C(F)(F)F)cc(C(F)(F)F)c3)s2)cc1 | 9.9 µM | 6 µM | inactive | 7.2 µM | inactive | 6.3 µM | inactive
O=C(NCCNS(=O)(=O)c1ccc(-c2ccccc2Oc2ccc([N+](=O)[O-])c([N+](=O)[O-])c2)s1)Nc1cc(C(F)(F)F)cc(C(F)(F)F)c1 | > 50 µM | > 50 µM | inactive | 1.9 µM | inactive | 2.4 µM | inactive
CC(C)c1ccc(Oc2ccc(O)c(O)c2)c(-c2ccsc2S(=O)(=O)NCCNC(=S)Nc2ccc([N+](=O)[O-])cc2)c1 | > 20 µM | 16.3 µM | inactive | 8.8 µM | inactive | 5.1 µM | inactive
O=[N+]([O-])c1ccc(NC(=S)NCCNS(=O)(=O)c2ccc(-c3ccccc3O[C@H]3CC[C@@H](O)CC3)s2)cc1 | > 20 µM | 20 µM | inactive | > 50 µM | inactive | 9.4 µM | inactive
O=C(NCCNS(=O)(=O)c1ccc(-c2ccccc2O[C@H]2CC[C@H](O)CC2)s1)Nc1ccc([N+](=O)[O-])cc1 | 10.5 µM | 9 µM | inactive | 8.9 µM | inactive | 4.1 µM | inactive
O=S(=O)(NCCNC(=S)Nc1cc(C(F)(F)F)cc(C(F)(F)F)c1)c1ccc(-c2ccccc2OCc2ccccc2)s1 | 4.7 µM | 8.5 µM | inactive | 2.1 µM | inactive | > 50 µM | inactive
O=C(NCCNS(=O)(=O)c1ccc(-c2ccccc2OCc2cccc(O)c2)s1)Nc1cc(C(F)(F)F)cc(C(F)(F)F)c1 | 17.3 µM | > 20 µM | inactive | 4 µM | inactive | 3 µM | inactive
O=[N+]([O-])c1ccc(NC(=S)NCCNS(=O)(=O)c2ccc(-c3ccccc3O[C@H]3CC[C@H](O)CC3)s2)cc1 | 5.4 µM | 10.5 µM | inactive | 11.6 µM | inactive | 1.5 µM | inactive
